Experimental data reported in publication PMC6235531, “Analyzing Protein Architectures and Protein-Ligand Complexes by Integrative Structural Mass Spectrometry” (Journal of Visualized Experiments : JoVE, 2018).
Structures can show the parent of a compound that is named as a salt.

How the values were obtained:
HerA-NurA = biological target: T1, HerA-NurA (Saccharolobus solfataricus, UniProt Q97WG8); assay: native nESI mass spectrometry titration; type: binding; conditions: 5 uM protein, 0-1 mM ligand, 2 mM MgCl2, 25 °C 1 h, then 200 mM ammonium acetate pH 7; also tested with 25 bp dsDNA
T1 construct: purified HerA hexamer with NurA dimer; with DNA double-strand break repair nuclease NurA
T1 sequence (Q97WH1 whole entry, one chain of several, further chain): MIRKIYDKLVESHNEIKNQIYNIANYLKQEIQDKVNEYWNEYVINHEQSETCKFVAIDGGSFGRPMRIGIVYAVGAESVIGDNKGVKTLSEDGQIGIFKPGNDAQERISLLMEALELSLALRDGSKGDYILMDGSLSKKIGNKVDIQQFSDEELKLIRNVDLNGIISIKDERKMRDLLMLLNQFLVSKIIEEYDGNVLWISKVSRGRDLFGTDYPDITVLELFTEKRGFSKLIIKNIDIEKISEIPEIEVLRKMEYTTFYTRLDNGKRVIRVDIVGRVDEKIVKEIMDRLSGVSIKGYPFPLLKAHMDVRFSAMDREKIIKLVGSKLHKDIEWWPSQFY

HerA = biological target: T2, HerA (Saccharolobus solfataricus, UniProt Q97WG8); assay: native nESI mass spectrometry titration; type: binding; conditions: increasing ATP-γ-S; no NurA; 200 mM ammonium acetate
T2 construct: purified HerA without NurA, hexamer and heptamer
T2 sequence (Q97WG8 1-500): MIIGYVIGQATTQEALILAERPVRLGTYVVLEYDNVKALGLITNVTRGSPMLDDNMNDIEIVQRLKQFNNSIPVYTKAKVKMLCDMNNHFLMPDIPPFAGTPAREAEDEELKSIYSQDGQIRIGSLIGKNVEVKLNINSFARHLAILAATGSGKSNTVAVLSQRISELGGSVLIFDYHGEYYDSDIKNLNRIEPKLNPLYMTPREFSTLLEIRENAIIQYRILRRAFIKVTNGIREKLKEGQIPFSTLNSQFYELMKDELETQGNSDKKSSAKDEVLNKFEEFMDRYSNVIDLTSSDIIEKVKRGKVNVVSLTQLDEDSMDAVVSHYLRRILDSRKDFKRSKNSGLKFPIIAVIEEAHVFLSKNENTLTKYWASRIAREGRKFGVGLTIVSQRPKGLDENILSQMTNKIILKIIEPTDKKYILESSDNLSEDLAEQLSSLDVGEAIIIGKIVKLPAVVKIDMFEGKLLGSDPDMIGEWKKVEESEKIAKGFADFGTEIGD

| Structure (SMILES) | native nESI mass spectrometry titration (HerA-NurA) | native nESI mass spectrometry titration (HerA) |
| --- | --- | --- |
| Nc1ncnc2c1ncn2[C@@H]1O[C@H](COP(=O)(O)OP(=O)(O)O)[C@@H](O)[C@H]1O [ADP] | ATP-γ-S and ADP titrations experiments determined the pairwise nucleotide binding to HerA-NurA alone | – |
| Nc1ncnc2c1ncn2[C@@H]1O[C@H](COP(=O)(O)OP(=O)(O)OP(O)(O)=S)[C@@H](O)[C@H]1O [ATP-γ-S, adenosine 5′-O-(3-thiotriphosphate), tetralithium salt] | ATP-γ-S and ADP titrations experiments determined the pairwise nucleotide binding to HerA-NurA alone | Number of ATP-γ-S molecules bound is shown on the spectra |
